“Also recorded” adds a separate entry of the source.
Key:
[1] = Pharmacokinetic study in rats, plasma and brain; settings: for total concentration in rat brain tissue: nanoemulsion or suspension; for half-life: male, Wistar, rat, ip, 10 mg/kg
Description: Five pharmacokinetic studies have been performed; four in male Wistar rats and one in male Swiss mice. […] In a separate in vitro experiment, the rapid equilibrium dialysis assay was used to determine free fraction of DK-I-56-1 in rat plasma and brain tissue.

[2] = tested on: binary αxβ3 (x=1, 2, 3, 5) receptors; test: Electrophysiology in Xenopus oocytes, binary receptors; type: cell-based, rat
Method: Mature female Xenopus laevis (Nasco, Fort Atkinson, Wis., USA) were anaesthetized in a bath of ice-cold 0.17% Tricain (Ethyl-m-aminobenzoat, Sigma-Aldrich, St. Louis, Mo., USA) before decapitation and transfer of the frog's ovary to ND96 medium (96 mM NaCl, 2 mM KCl, 1 mM MgCl2, 5 mM HEPES; pH 7.5). Following incubation in 1 mg/mL collagenase (Sigma-Aldrich, St. Louis, Mo., USA) for 30 min, stage 5 to 6 oocytes were singled out of the ovary and defolliculated using a platinum wire loop. Oocytes were stored and incubated at 18° C. in NDE medium (96 mM NaCl, 2 mM KCl, 1 mM MgCl2, 5 mM HEPES, 1.8 mM CaCl2; pH 7.5) that was supplemented with 100 U per mL-1 penicillin, 100 μg per mL-1 streptomycin and 2.5 mM pyruvate. Oocytes were injected with an aqueous solution of mRNA. A total of 2.5 ng of mRNA per oocyte was injected. Subunit ratio was 1:1:5 for αxβγ2 (x=1, 2, 3, 5) and 3:1:5 for α4/6β3γ2 and αβδ receptors. Injected oocytes were incubated for at least 36 h before electrophysiological recordings. Oocytes were placed on a nylon-grid in a bath of NDE medium. For current measurements, the oocytes were impaled with two microelectrodes (2-3MΩ), which were filled with 2 M KCl. The oocytes were constantly washed by a flow of 6 mL per min-1 NDE that could be switched to NDE containing GABA and/or drugs. Drugs were diluted into NDE from DMSO solutions resulting in a final concentration of 0.1% DMSO. Maximum currents measured in mRNA injected oocytes were in the microampere range for all receptor subtypes. […] Data were digitized using a Digidata 1322A or 1550 data acquisition system (Axon Instruments, Union City, Calif., USA), recorded using Clampex 10.5 software (Molecular Devices, Sunnyvale, Calif., USA), and analyzed using Clampfit 10.5 and GraphPad Prism 6.0 (La Jolla, Calif., USA) software. […]
For selected test compounds full dose response curves were recorded in α1-6β3γ2 receptors. […]

α6β3γ2 receptor = target: T1, α6β3γ2 receptor (Rattus norvegicus, UniProt P30191+P63079); test: Electrophysiology in Xenopus oocytes, modulation of GABA currents; type: cell-based; settings: for Emax: EC3-6 GABA currents, read-out: maximum efficacy, enhancement of the reference current; for selectivity for α6β3γ2 over other αxβ3γ2 receptors: modulation of GABA EC3 currents
T1 construct: expressed in transfected cells; host or cells: Xenopus laevis oocytes injected with subunit mRNA (3:1:5)
T1 sequence (P30191 20-453): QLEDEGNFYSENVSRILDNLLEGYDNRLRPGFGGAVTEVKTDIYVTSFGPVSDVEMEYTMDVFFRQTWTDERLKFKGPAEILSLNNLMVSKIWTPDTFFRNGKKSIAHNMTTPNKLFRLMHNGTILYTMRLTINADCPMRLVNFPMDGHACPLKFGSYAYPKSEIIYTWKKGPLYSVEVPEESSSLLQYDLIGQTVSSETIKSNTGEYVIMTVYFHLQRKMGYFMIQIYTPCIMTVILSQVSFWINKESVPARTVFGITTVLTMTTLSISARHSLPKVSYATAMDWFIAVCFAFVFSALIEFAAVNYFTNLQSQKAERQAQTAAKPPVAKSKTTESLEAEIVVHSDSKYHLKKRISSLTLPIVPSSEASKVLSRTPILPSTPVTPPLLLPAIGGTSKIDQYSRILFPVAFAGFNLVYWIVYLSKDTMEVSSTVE
T1 sequence (P63079 26-473): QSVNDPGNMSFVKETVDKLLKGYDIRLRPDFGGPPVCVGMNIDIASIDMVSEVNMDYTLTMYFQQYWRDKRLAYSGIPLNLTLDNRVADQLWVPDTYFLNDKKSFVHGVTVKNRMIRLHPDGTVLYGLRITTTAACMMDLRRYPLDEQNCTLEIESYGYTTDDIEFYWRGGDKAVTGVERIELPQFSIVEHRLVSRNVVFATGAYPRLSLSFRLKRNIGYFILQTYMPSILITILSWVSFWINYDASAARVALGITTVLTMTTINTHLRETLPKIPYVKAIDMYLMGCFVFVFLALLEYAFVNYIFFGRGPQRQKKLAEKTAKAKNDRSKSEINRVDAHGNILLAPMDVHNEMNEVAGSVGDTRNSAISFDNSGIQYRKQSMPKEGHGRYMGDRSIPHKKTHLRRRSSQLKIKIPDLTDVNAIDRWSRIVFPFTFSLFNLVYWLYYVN
T1 sequence (P18508 39-466 partner): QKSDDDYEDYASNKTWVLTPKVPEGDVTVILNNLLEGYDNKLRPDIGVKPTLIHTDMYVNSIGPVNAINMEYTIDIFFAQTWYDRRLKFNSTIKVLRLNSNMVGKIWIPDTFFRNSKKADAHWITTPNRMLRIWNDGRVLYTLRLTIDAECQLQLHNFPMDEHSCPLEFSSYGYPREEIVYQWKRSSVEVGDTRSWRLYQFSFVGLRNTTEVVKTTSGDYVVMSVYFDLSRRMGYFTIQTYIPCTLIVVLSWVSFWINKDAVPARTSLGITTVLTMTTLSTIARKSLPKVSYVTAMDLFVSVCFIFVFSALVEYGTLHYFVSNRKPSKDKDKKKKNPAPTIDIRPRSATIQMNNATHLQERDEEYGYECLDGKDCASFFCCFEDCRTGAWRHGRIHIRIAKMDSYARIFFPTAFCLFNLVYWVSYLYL
Method: Mature female Xenopus laevis (Nasco, Fort Atkinson, Wis., USA) were anaesthetized in a bath of ice-cold 0.17% Tricain (Ethyl-m-aminobenzoat, Sigma-Aldrich, St. Louis, Mo., USA) before decapitation and transfer of the frog's ovary to ND96 medium (96 mM NaCl, 2 mM KCl, 1 mM MgCl2, 5 mM HEPES; pH 7.5). Following incubation in 1 mg/mL collagenase (Sigma-Aldrich, St. Louis, Mo., USA) for 30 min, stage 5 to 6 oocytes were singled out of the ovary and defolliculated using a platinum wire loop. Oocytes were stored and incubated at 18° C. in NDE medium (96 mM NaCl, 2 mM KCl, 1 mM MgCl2, 5 mM HEPES, 1.8 mM CaCl2; pH 7.5) that was supplemented with 100 U per mL-1 penicillin, 100 μg per mL-1 streptomycin and 2.5 mM pyruvate. Oocytes were injected with an aqueous solution of mRNA. A total of 2.5 ng of mRNA per oocyte was injected. Subunit ratio was 1:1:5 for αxβγ2 (x=1, 2, 3, 5) and 3:1:5 for α4/6β3γ2 and αβδ receptors. Injected oocytes were incubated for at least 36 h before electrophysiological recordings. Oocytes were placed on a nylon-grid in a bath of NDE medium. For current measurements, the oocytes were impaled with two microelectrodes (2-3MΩ), which were filled with 2 M KCl. The oocytes were constantly washed by a flow of 6 mL per min-1 NDE that could be switched to NDE containing GABA and/or drugs. Drugs were diluted into NDE from DMSO solutions resulting in a final concentration of 0.1% DMSO. […] To test for modulation of GABA induced currents by compounds, a GABA concentration that was titrated to trigger 3-5% of the respective maximum GABA-elicited current of the individual oocyte (EC3-5) was applied to the cell together with various concentrations of tested compounds. All recordings were performed at room temperature at a holding potential of −60 mV using a Warner OC-725C TEV (Warner Instrument, Hamden, Conn., USA) or a Dagan CA-1B Oocyte Clamp or a Dagan TEV-200A TEV (Dagan Corporation, Mineapolis, Minn., USA). Data were digitized using a Digidata 1322A or 1550 data acquisition system (Axon Instruments, Union City, Calif., USA), recorded using Clampex 10.5 software (Molecular Devices, Sunnyvale, Calif., USA), and analyzed using Clampfit 10.5 and GraphPad Prism 6.0 (La Jolla, Calif., USA) software. Concentration-response data were fitted using the Hill equation. Data are given as mean±SEM from at least three oocytes of two batches.
For selected test compounds full dose response curves were recorded in α1-6β3γ2 receptors. For selected compounds, dose response curves in additional receptor subtypes (α1, 4, 6β3δ, α6β1, 2γ2, α1-6β3) were also obtained. For a wider panel of compounds, a two point screening pharmacology was obtained at 1 and 10 μM compound concentrations.

SMILES | time of maximum concentration in rat brain tissue ([1]; 10 mg/kg i.p.) [h] | total concentration in rat brain tissue ([1]; 10 mg/kg i.p.) | free concentrations in rat brain tissue ([1]; 10 mg/kg i.p., estimated from free fraction) [nM] | half-life ([1]; brain) [h] | efficacy in binary αxβ3 receptors [2] | Emax (α6β3γ2 receptor) [%] | selectivity for α6β3γ2 over other αxβ3γ2 receptors (α6β3γ2 receptor) | half-life ([1]; in vivo) [h] | maximum efficacy compared to the lead compounds (α6β3γ2 receptor) | selectivity for α6β3γ2 over other αxβ3γ2 receptors (α6β3γ2 receptor; listed as compound 6)
[2H]C([2H])([2H])Oc1ccc(-n2nc3c4ccc(OC)cc4[nH]cc-3c2=O)cc1 [DK-I-56-1, 7-Methoxy-2-(4-methoxy-d3-phenyl)-2,5-dihydro-3H-pyrazolo[4,3-c]quinolin-3-one] | 3 | micromolar concentrations | ≥ 100 | ~4 | – | – | – | – | – | –
COc1ccc(-n2nc3c4ccc(Br)cc4[nH]cc-3c2=O)cc1 [LAU 463, 7-Bromo-2-(4-methoxyphenyl)-2,5-dihydro-3H-pyrazolo[4,3-c]quinolin-3-one] | – | – | – | – | low efficacy | 400 to 1000 | preferentially modulate GABA currents of α6β3γ2 receptors; also recorded: pronounced selectivity for the α6β3γ2 receptor; also recorded: (efficacy-) selective for α6β3γ2 receptors | – | – | –
COc1cccc(-n2nc3c4cc(Cl)ccc4[nH]cc-3c2=O)c1 [LAU 159, 8-Chloro-2-(3-methoxyphenyl)-2,5-dihydro-3H-pyrazolo[4,3-c]quinolin-3-one] | – | – | – | – | low efficacy | ~400 | preferentially modulate GABA currents of α6β3γ2 receptors; also recorded: pronounced selectivity for the α6β3γ2 receptor; also recorded: (efficacy-) selective for α6β3γ2 receptors | – | – | –
[2H]C([2H])([2H])Oc1ccc2c3nn(-c4ccc(OC)nc4)c(=O)c-3c[nH]c2c1 [DK-I-86-1, 7-Methoxy-d3-2-(6-methoxypyridin-3-yl)-2,5-dihydro-3H-pyrazolo[4,3-c]quinolin-3-one] | – | high submicromolar concentrations | – | – | – | – | preferentially modulates α6β3γ2 receptors; also recorded: selectivity was very good | ~9 | lower | –
COc1ccc(-n2nc3c4ccc(OC)cc4[nH]cc-3c2=O)cc1 [Compound 6, 7-Methoxy-2-(4-methoxyphenyl)-2,5-dihydro-3H-pyrazolo[4,3-c]quinolin-3-one] | – | high submicromolar concentrations | – | – | low efficacy | 400 to 1000 | preferentially modulate GABA currents of α6β3γ2 receptors; also recorded: pronounced selectivity for the α6β3γ2 receptor | – | – | selectively modulates α6-containing receptors; also recorded: (efficacy-) selective for α6β3γ2 receptors
